Measured values reported in US12186284B2, “Antimicrobial formulations for the treatment of veterinary hoof infections” (Provita Eurotech Ltd, priority 2016, dated 2025).

Legend:
[1] = test system: Escherichia coli (NCTC12241); test: Rate of kill assay based on BS EN 1276:1997, clean and dirty conditions; format: cell-based; conditions: 3× MIC (0.375% v/v; CS 0.15% w/v)
From the text: The rate of kill assay is based on the British and European standard test conditions BS EN 1276:1997.
The initial inoculum of microorganism ranged between 10^6-10^7 colony forming units per mL.

[2] = test system: Escherichia coli (NCTC12241); test: Minimum inhibitory concentration (MIC); format: cell-based; conditions: three times the minimum inhibitory concentration

## O=S(=O)([O-])[O-].[Cu+2] [CS, copper sulphate]
[1]; contact time 0 s, clean (no bovine albumin)
  Surviving Bacterial Count (cfu/mL) under clean and dirty conditions: 3.2 × 10^6 cfu/mL
[1]; contact time 0 s, dirty (0.3% bovine albumin)
  Surviving Bacterial Count (cfu/mL) under clean and dirty conditions: 1.4 × 10^7 cfu/mL
[1]; contact time 30 s, clean (no bovine albumin)
  Surviving Bacterial Count (cfu/mL) under clean and dirty conditions: 1.7 × 10^6 cfu/mL
[1]; contact time 30 s, dirty (0.3% bovine albumin)
  Surviving Bacterial Count (cfu/mL) under clean and dirty conditions: 1.1 × 10^7 cfu/mL
[1]; contact time 60 s, clean (no bovine albumin)
  Surviving Bacterial Count (cfu/mL) under clean and dirty conditions: 6.2 × 10^5 cfu/mL
[1]; contact time 60 s, dirty (0.3% bovine albumin)
  Surviving Bacterial Count (cfu/mL) under clean and dirty conditions: 9.7 × 10^6 cfu/mL
[1]; contact time 120 s, clean (no bovine albumin)
  Surviving Bacterial Count (cfu/mL) under clean and dirty conditions: 3.3 × 10^5 cfu/mL
[1]; contact time 120 s, dirty (0.3% bovine albumin)
  Surviving Bacterial Count (cfu/mL) under clean and dirty conditions: 5.2 × 10^6 cfu/mL
[1]; contact time 300 s, clean (no bovine albumin)
  Surviving Bacterial Count (cfu/mL) under clean and dirty conditions: 5.0 × 10^3 cfu/mL
[1]; contact time 300 s, dirty (0.3% bovine albumin)
  Surviving Bacterial Count (cfu/mL) under clean and dirty conditions: 3.2 × 10^4 cfu/mL
[2]
  3MIC: 0.15%
